US10577363B2, “Substituted piperidine compounds” (EPIZYME, INC., priority 2014, dated 2020)

Columns and labels:
SMYD3 [1] = molecular target: T1, SMYD3 (Homo sapiens (Human), UniProt Q9H7B4); test: SMYD3 biochemical assay (SPA, 3H-SAM methylation of MEKK2 protein substrate); conditions: average of n = 1 to n = 50; read-out: SMYD3 Biochem IC50
Procedure, shortened: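 Native full-length human SMYD3 (E. coli-expressed, tags removed) was preincubated with compound for 30 min at room temperature in 25 mM Tris-Cl pH 8.0, 1 mM TCEP, 0.005% BSG, 0.005% Tween 20. Reaction was started with 3H-SAM plus GST-MEKK2, quenched with 100 uM unlabeled SAM, and read by SPA scintillation counting.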

SMYD3 [2] = molecular target: T1, SMYD3; test: SMYD3 cell assay (Trimethyl-MEKK2 In-Cell Western in 293T/17 cells); type: cell-based; conditions: average of n = 1 to n = 50; read-out: SMYD3 Cell IC50
Procedure, shortened: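 In-Cell Western ratio of trimethyl-Lys260 MEKK2 to anti-flag signal; percent inhibition from DMSO and maximum-inhibition controls, IC50 by non-linear regression, triplicates.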

T1 sequence (Q9H7B4 whole entry): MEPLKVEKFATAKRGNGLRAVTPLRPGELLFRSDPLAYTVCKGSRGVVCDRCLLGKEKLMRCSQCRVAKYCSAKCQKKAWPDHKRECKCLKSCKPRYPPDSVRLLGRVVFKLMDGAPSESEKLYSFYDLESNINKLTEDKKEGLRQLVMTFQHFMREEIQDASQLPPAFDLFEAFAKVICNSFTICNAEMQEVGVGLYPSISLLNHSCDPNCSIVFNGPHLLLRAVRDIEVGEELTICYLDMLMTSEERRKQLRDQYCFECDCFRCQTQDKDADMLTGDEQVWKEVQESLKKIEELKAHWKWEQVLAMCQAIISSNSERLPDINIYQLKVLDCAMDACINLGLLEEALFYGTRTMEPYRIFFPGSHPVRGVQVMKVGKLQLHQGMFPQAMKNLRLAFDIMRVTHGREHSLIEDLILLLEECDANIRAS

| SMILES | IC50 (SMYD3 [1]) [nM] | IC50 (SMYD3 [2]) [nM] |
| --- | --- | --- |
| O=C(N[C@@H]1C[C@H]2CCC[C@@H](C1)N2S(=O)(=O)c1cncc(F)c1)c1cc(C2CC2)on1 [compound 753, 5-cyclopropyl-N-((1R,3s,5S)-9-((5-fluoropyridin-3-yl)sulfonyl)-9-azabicyclo[3.3.1]nonan-3-yl)isoxazole-3-carboxamide] | 672 | 2040 |
| O=C(N[C@H]1C[C@H]2CC[C@@H](C1)N2S(=O)(=O)N1CC2COCC(C1)N2)c1cc(C2CC2)on1 [compound 758, N-((1R,3r,5S)-8-((3-oxa-7,9-diazabicyclo[3.3.1]nonan-7-yl)sulfonyl)-8-azabicyclo[3.2.1]octan-3-yl)-5-cyclopropylisoxazole-3-carboxamide] | 731 | 1650 |
| COCC1CCCN1CCS(=O)(=O)N1[C@@H]2CC[C@H]1C[C@@H](NC(=O)c1cc(C3CC3)on1)C2 (stereo partly drawn) [compound 762, 5-cyclopropyl-N-((1R,3r,5S)-8-((2-(2-(methoxymethyl)pyrrolidin-1-yl)ethyl)sulfonyl)-8-azabicyclo[3.2.1]octan-3-yl)isoxazole-3-carboxamide] | 770 | 2070 |
| CCN1CCN(S(=O)(=O)N2[C@@H]3CCC[C@@H]2CC(NC(=O)c2cc(C4CC4)on2)C3)CC1 (stereo partly drawn) [compound 765, 5-cyclopropyl-N-((1R,5R)-9-((4-ethylpiperazin-1-yl)sulfonyl)-9-azabicyclo[3.3.1]nonan-3-yl)isoxazole-3-carboxamide] | 836 | 2420 |

More lines, now with the values ahead:

| IC50 (SMYD3 [1]) [nM] | IC50 (SMYD3 [2]) [nM] | SMILES |
| --- | --- | --- |
| 676 | 3710 | C[C@H]1C[C@@H](NC(=O)c2cc(C3CC3)on2)CCN1S(=O)(=O)NCc1c(F)cccc1Cl [compound 754, N-((2S,4S)-1-(N-(2-chloro-6-fluorobenzyl)sulfamoyl)-2-methylpiperidin-4-yl)-5-cyclopropylisoxazole-3-carboxamide] |
| 677 | 2380 | C[C@@H]1CN(S(=O)(=O)N2CC[C@H](NC(=O)c3cc(C4CC4)on3)C[C@@H]2C)C[C@H](C)N1C [compound 755, 5-cyclopropyl-N-((2S,4S)-2-methyl-1-(((3S,5R)-3,4,5-trimethylpiperazin-1-yl)sulfonyl)piperidin-4-yl)isoxazole-3-carboxamide] |
| 684 | 1770 | C[C@H]1C[C@@H](NC(=O)c2cc(C3CC3)on2)CCN1S(=O)(=O)c1ccnc(N)c1 [compound 756, N-((2S,4S)-1-((2-aminopyridin-4-yl)sulfonyl)-2-methylpiperidin-4-yl)-5-cyclopropylisoxazole-3-carboxamide] |
| 726 | 7610 | CN(C1CCNCC1)S(=O)(=O)N1CC[C@@H](NC(=O)c2cc(C3CC3)on2)C[C@H]1Cc1ccccc1 [compound 757, N-((2R,4R)-2-benzyl-1-(N-methyl-N-(piperidin-4-yl)sulfamoyl)piperidin-4-yl)-5-cyclopropylisoxazole-3-carboxamide] |
| 733 | 2060 | C[C@H]1C[C@@H](NC(=O)c2cc(C3CC3)on2)CCN1S(=O)(=O)N1CCN(C)[C@H](CCO)C1 [compound 759, 5-cyclopropyl-N-((2S,4S)-1-(((R)-3-(2-hydroxyethyl)-4-methylpiperazin-1-yl)sulfonyl)-2-methylpiperidin-4-yl)isoxazole-3-carboxamide] |
| 751 | 2850 | CC(=O)NCc1ccc(S(=O)(=O)N2CC[C@H](NC(=O)c3cc(C4CC4)on3)C[C@@H]2C)cc1 [compound 761, N-((2S,4S)-1-((4-(acetamidomethyl)phenyl)sulfonyl)-2-methylpiperidin-4-yl)-5-cyclopropylisoxazole-3-carboxamide] |
| 806 | 9670 | C[C@@H]1C[C@H](NC(=O)c2cc(C3CC3)on2)CCN1C(=O)c1ccc(OCCN2CCNCC2)cc1 [compound 764, 5-cyclopropyl-N-((2R,4R)-2-methyl-1-(4-(2-(piperazin-1-yl)ethoxy)benzoyl)piperidin-4-yl)isoxazole-3-carboxamide] |
